Assay [1] concerns CAL-27 cells (human tongue squamous cell carcinoma cells). In words: alamarBlue proliferation assay with CAL-27 cells. In kind it is cell-based. To be noted: for activity at 40 µM / activity at 20 µM: Homo sapiens, 120 h; for activity at 40 µM: relative to DMSO basis level 1.0, read-out: weighted arithmetic mean (AVEw) of normalized fluorescence intensity, activity range; for activity at 20 µM: relative to DMSO baseline level of 1.0, read-out: AVEw, weighted arithmetic mean of normalized fluorescence intensity values (Activity Range), CAL-27 proliferation. In outline: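 CAL-27 cells seeded at 2000 per well, exposed to compound in 0.1% DMSO for 5 days, then alamarBlue fluorescence (ex 560/em 590 nm). Values normalized to DMSO wells (1.0) as weighted means with combined standard deviation; growth inhibition judged at 20 μM reference concentration.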

Assay [2] deals with TT cells (human medullary thyroid carcinoma cells). Briefly: alamarBlue proliferation assay with TT cells. In kind it is cell-based. To be noted: for activity at 40 µM: Homo sapiens, 120 h, relative to DMSO basis level 1.0, read-out: weighted arithmetic mean (AVEw) of normalized fluorescence intensity, activity range. As to the method: The antiproliferative activities of compounds falling under formula I, formula II, formula III, formula IV and formula V were investigated on cells or cell lines originating from a disorder of the myeloid cell compartment, the neuroendocrine system, the cervix, and the mucosal epithelium, as well as from the skin epithelium. To this end, HL-60 cells, TT cells, HeLa cells, CAL-27 cells and human primary epidermal keratinocytes (HPEK) were seeded into 96-well plates suitable for fluorescence assays (CORNING #3598) at following initial cell numbers: 1000 cells per well for HL-60; 9000 cells per well for TT; 2000 cells per well for HeLa, 2000 cells per well for CAL-27, 2000 cells per well for HPEK. The cells were treated with compounds at indicated final concentrations (diluted from the 1000× stock-solutions in DMSO to a final DMSO concentration of 0.1% v/v) or with the empty carrier DMSO at 0.1% v/v as control for 5 days. At day 5 after starting the treatments the cells were subjected to the alamarBlue® Proliferation Assay (Bio-Rad Serotec GmbH, BUF012B) according to the protocol of the manufacturer. The readout was taken with a multi-well plate-reader in the fluorescence mode with applying a filter for excitation at 560 nm (band width 10 nm) and for emission at 590 nm (band width 10 nm). Resveratrol (RES) treatment was included as control for growth inhibition.
The assays were performed in duplicate or more replicates of independent single experiments each containing a six-fold replicate for every condition. For every individual plate, the measured fluorescence intensity values of the conditions with compound treatment were normalized against the corresponding equally weighted arithmetic mean of the fluorescence intensity values of the six DMSO treated control wells in order to obtain the relative values to a baseline level of 1.0. The statistical calculations were performed in analogy to the luciferase assay as described above. To this end, two independent outlier analyses were performed according to the methods by Peirce and Chauvenet (Ross, Journal of Engineering Technology 2003, 1-12). Outliers confirmed by at least one of the methods were excluded from the calculations but not more than one value out of six per compound within a single experiment. The weighted arithmetic mean AVEw for each compound was calculated from the normalized values over all independent replicates of the single experiments comprising the six replicates each. The corresponding standard deviation for the weighted arithmetic mean was calculated according to the method described by Bronstein et al. (Bronstein, Semendjajew, Musiol, Mühlig, Taschenbuch der Mathematik, 5th edition 2001 (German), publisher: Verlag Harri Deutsch, Frankfurt am Main and Thun) and was combined with the Gauß′ error propagation associated with the performed calculation for the normalization. The resulting standard deviation is herein referred to as “combined standard deviation”.
TT cells were cultivated according to the protocol of the provider in F-12K medium (Fisherscientific, #11580556, or ATCC, #ATCC-30-2004) containing 10% fetal bovine serum (Fisherscientific, #15517589).
A compound is considered as a growth inhibitor of TT cells, if—at a reference concentration of 40 μM—the weighted arithmetic mean of the normalized fluorescence intensity values after addition of the corresponding combined standard deviation amounts to 0.9 or lower, in particular to 0.8 or lower, 0.7 or lower, 0.6 or lower, 0.4 or lower, and 0.2 or lower, relative to the overall basis level of 1.0. The overall basis level was calculated as the weighted arithmetic mean of all normalized values from the DMSO control measurements in analogy to the calculations performed for the test-compounds. The corresponding combined standard deviation for the DMSO values amounts to less than 1·10^−2.

The mark [3] stands for this setting: control RES at 20 μM, relative to DMSO basis level 1.0.

As for `NC(=O)c1ccc(Oc2ccc(C3CC4CCC3C4)cc2)cc1` (racemic) [Compound 159, (±)-4-(4-(Bicyclo[2.2.1]heptan-2-yl)phenoxy)benzamide], the activity at 40 µM in assay [1] was in the range of 60 to 70%; in assay [2] it was 80 to 90%.
With `CCCc1ccc(Oc2ccc(C(=O)NO)cc2)cc1` [Compound 166, N-hydroxy-4-(4-propylphenoxy)benzamide], the activity at 20 µM in assay [1] (5 days) was 20 to 40%. The activity at 40 µM in assay [1] fell in the range of 0 to 20%; in assay [2], 20 to 40%.
As to `CCC(C)(C)c1ccc(Oc2ccc(C(=O)NO)cc2)cc1` [Compound 171, N-hydroxy-4-(4-(tert-pentyl)phenoxy)benzamide], in assay [1] (5 days), the activity at 20 µM fell in the range of 0 to 20%. For the same compound, the activity at 40 µM in assay [2] was in the range of 20 to 40%.
For `O=C(NO)c1ccc(Oc2ccc(C3CCCCC3)cc2)cc1` [Compound 182, 4-(4-cyclohexylphenoxy)-N-hydroxybenzamide] the same measures were 20 to 40% and 20 to 40%.
With `O=C(NO)c1ccc(Oc2ccc(C34CC5CC(CC(C5)C3)C4)cc2)cc1` [Compound 186, 4-(4-(Adamantan-1-yl)phenoxy)-N-hydroxybenzamide], in assay [1] (5 days), the activity at 20 µM lay within 0 to 20%. For the same compound, the activity at 40 µM in assay [2] was in the range of 20 to 40%.
Consider `CC(C)c1ccc(Oc2ccc(C(=O)NO)cn2)cc1` [Compound 272, N-hydroxy-6-(4-isopropylphenoxy)nicotinamide], for which the activity at 20 µM in assay [1] (5 days) fell in the range of 0 to 20%. The activity at 40 µM in assay [1] and in assay [2] was 0 to 20% throughout.
Consider `CCC(C)(C)c1ccc(Oc2ccc(C(=O)NO)cn2)cc1` [Compound 273, N-hydroxy-6-(4-(tert-pentyl)phenoxy)nicotinamide], for which, in assay [1] (5 days), the activity at 20 µM lay in the range of 0 to 20%.
On to `O=C(NO)c1ccc(Oc2ccc(C3CCCCC3)cc2)nc1` [Compound 284, 6-(4-Cyclohexylphenoxy)-N-hydroxynicotinamide], for which the activity at 20 µM in assay [1] (5 days) lay in the range of 0 to 20%. Moreover, the activity at 40 µM in assay [2] fell in the range of 0 to 20%.
`O=C(NO)c1ccc(Oc2ccc(C3CC4CCC3CC4)cc2)nc1` (stereo not drawn) [Compound 287, 6-(4-((1s,4s)-bicyclo[2.2.2]octan-2-yl)phenoxy)-N-hydroxynicotinamide]: the activity at 20 µM in assay [1] (5 days) is 20 to 40%. Further, the activity at 40 µM in assay [1] lay within 0 to 20%; in assay [2] it was 20 to 40%.
Regarding `O=C(NO)c1ccc(Oc2ccc(C34CC5CC(CC(C5)C3)C4)cc2)nc1` [Compound 288, 6-(4-((3r,5r,7r)-adamantan-1-yl)phenoxy)-N-hydroxynicotinamide], the activity at 20 µM in assay [1] (5 days) was 20 to 40%. Also, the activity at 40 µM in assay [2] was in the range of 0 to 20%.
`CNC(=O)c1ccc(Oc2ccc(C(F)(F)F)cc2)nc1` [Compound 300, N-methyl-6-(4-(trifluoromethyl)phenoxy)nicotinamide]: in assay [1] (5 days), the activity at 20 µM fell in the range of 80 to 90%. Also, the activity at 40 µM in assay [1] was 80 to 90%.
On to `CN(C)C(=O)c1ccc(Oc2ccc(C3CCCCC3)cc2)nc1` [Compound 334, 6-(4-cyclohexylphenoxy)-N,N-dimethylnicotinamide], for which the activity at 40 µM in assay [1] and in assay [2] was 80 to 90% in each case.
As for `O=C(NO)c1ccc(Oc2ccc(C34CC5CC(CC(C5)C3)C4)cc2)c(F)c1` [Compound 544, 4-(4-(Adamantan-1-yl)phenoxy)-3-fluoro-N-hydroxybenzamide], the activity at 20 µM in assay [1] (5 days) lay within 0 to 20%. Also, in assay [2], the activity at 40 µM was in the range of 20 to 40%.
The corresponding values for `O=C(NO)c1cnc(Oc2ccc(C3CCCCC3)cc2)c(F)c1` [Compound 644, 6-(4-Cyclohexylphenoxy)-5-fluoro-N-hydroxynicotinamide] are 0 to 20% and 20 to 40%.
On to `Oc1ccc(C=Cc2cc(O)cc(O)c2)cc1` [RES, resveratrol, reference compound], for which the “AVEw, weighted arithmetic mean of normalized fluorescence intensity values, CAL-27 proliferation” value in assay [1] (40 μM (control RES 40 μM), 5 days, relative to DMSO baseline level of 1.0) came out at 0.4 ± 0.0. The activity at 20 µM in assay [1] (5 days) is 90%. Further, the activity at 40 µM in assay [1] turned out to be 50%; in assay [2], 80%. Moreover, the “weighted arithmetic mean (AVEw) of normalized fluorescence intensity” value in assay [1] (setting [3]) and in assay [2] (setting [3]) was 0.9 ± 0.0 throughout.
